These results are taken from patent US9999619B2, “Piperidin-4-yl azetidine derivatives as JAK1 inhibitors” (Incyte Corporation, priority 2010, dated 2018).

Holding throughout (format): biochemical
One assay addresses Jak2 (a.a. 828-1132) (Homo sapiens (Human), UniProt O60674). Put plainly: In vitro JAK kinase assay (HTRF, phosphorylation of a biotinylated peptide), JAK2. The following applies: measured at 1 mM ATP. Put shortly: (§1)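 N-terminally His-tagged catalytic domains, baculovirus-expressed in insect cells and purified, were used as enzyme. Reactions ran 1 hr at room temperature and were stopped with a mix of 45 mM EDTA, 300 nM SA-APC and 6 nM Eu-Py20. The HTRF signal was read after 40 min of antibody binding.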
For orientation: TR-FRET usually uses a lanthanide donor and a delayed reading to cut background.

In assay [1] the target is human JAK1 (a.a. 837-1142). Nature of the assay: In vitro JAK kinase assay (HTRF, phosphorylation of a biotinylated peptide), JAK1. As to conditions: ratio of JAK2 IC50 to JAK1 IC50, measured at 1 mM ATP. Put shortly: as §1
Assay [2] deals with human JAK1 (a.a. 837-1142) (Homo sapiens, UniProt P23458). The description is as above. As to conditions: measured at 1 mM ATP. Put shortly:
as §1

Sequence of Jak2 (a.a. 828-1132) (O60674 828-1132): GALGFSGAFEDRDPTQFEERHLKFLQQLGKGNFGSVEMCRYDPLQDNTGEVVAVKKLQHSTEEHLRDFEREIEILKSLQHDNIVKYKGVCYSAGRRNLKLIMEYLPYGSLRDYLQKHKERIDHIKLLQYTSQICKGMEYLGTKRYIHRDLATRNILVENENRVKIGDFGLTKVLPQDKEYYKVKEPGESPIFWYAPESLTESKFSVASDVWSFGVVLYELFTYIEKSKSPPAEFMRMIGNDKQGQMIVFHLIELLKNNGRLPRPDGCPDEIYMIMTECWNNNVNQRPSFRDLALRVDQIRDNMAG

As for `N#CCC1(n2cc(-c3ncnc4[nH]ccc34)cn2)CN(C2CCN(S(=O)(=O)C3CCCC3)CC2)C1` [Example 253, {1-[1-(cyclopentylsulfonyl)piperidin-4-yl]-3-[4-(7H-pyrrolo[2,3-d]pyrimidin-4-yl)-1H-pyrazol-1-yl]azetidin-3-yl}acetonitrile], the half-inhibitory concentration (IC50) (usually the point on the concentration scale where inhibition reaches its midpoint) against Jak2 (a.a. 828-1132) is not above 10 nM; in assay [2], not above 5 nM. Further, in assay [1], the “IC50 Ratio JAK2/JAK1” value is given as 5.8.

For `Cn1cnc(S(=O)(=O)N2CCC(N3CC(CC#N)(n4cc(-c5ncnc6[nH]ccc56)cn4)C3)CC2)c1` [Example 258, {1-{1-[(1-methyl-1H-imidazol-4-yl)sulfonyl]piperidin-4-yl}-3-[4-(7H-pyrrolo[2,3-d]pyrimidin-4-yl)-1H-pyrazol-1-yl]azetidin-3-yl}acetonitrile], the values for the IC50 (against Jak2 (a.a. 828-1132); in assay [2]) were not above 10 nM and not above 5 nM, respectively. Also, the “IC50 Ratio JAK2/JAK1” value in assay [1] came out at 5.0.

As for `Cc1nc(S(=O)(=O)N2CCC(N3CC(CC#N)(n4cc(-c5ncnc6[nH]ccc56)cn4)C3)CC2)cn1C` [Example 259, {1-{1-[(1,2-dimethyl-1H-imidazol-4-yl)sulfonyl]piperidin-4-yl}-3-[4-(7H-pyrrolo[2,3-d]pyrimidin-4-yl)-1H-pyrazol-1-yl]azetidin-3-yl}acetonitrile], the figures for the IC50 (on Jak2 (a.a. 828-1132); in assay [2]) were not above 10 nM and not above 5 nM, respectively. Further, the “IC50 Ratio JAK2/JAK1” value in assay [1] is 4.6.

On to `Cc1noc(C)c1S(=O)(=O)N1CCC(N2CC(CC#N)(n3cc(-c4ncnc5[nH]ccc45)cn3)C2)CC1` [Example 260, {1-{1-[(3,5-dimethylisoxazol-4-yl)sulfonyl]piperidin-4-yl}-3-[4-(7H-pyrrolo[2,3-d]pyrimidin-4-yl)-1H-pyrazol-1-yl]azetidin-3-yl}acetonitrile], for which the IC50 at Jak2 (a.a. 828-1132) is 10 to 50 nM; in assay [2], not above 5 nM. Besides, in assay [1], the “IC50 Ratio JAK2/JAK1” value is listed as 7.1.

For `N#CCC1(n2ccc(-c3ncnc4[nH]ccc34)c2)CN(C2CCN(C(=O)c3ccnc(C(F)(F)F)c3F)CC2)C1` [Example 261, {1-{1-[3-Fluoro-2-(trifluoromethyl)isonicotinoyl]piperidin-4-yl}-3-[3-(7H-pyrrolo[2,3-d]pyrimidin-4-yl)-1H-pyrrol-1-yl]azetidin-3-yl}acetonitrile], the half-maximal inhibitory concentration (IC50) is more than 100 nM on Jak2 (a.a. 828-1132) and 5 to 20 nM in assay [2]. The “IC50 Ratio JAK2/JAK1” value in assay [1] is 20.8.

`N#CCC1(n2ccc(-c3ncnc4[nH]ccc34)c2)CN(C2CCN(C(=O)c3cccc(C#N)c3)CC2)C1` [Example 262, 3-[(4-{3-(cyanomethyl)-3-[3-(7H-pyrrolo[2,3-d]pyrimidin-4-yl)-1H-pyrrol-1-yl]azetidin-1-yl}piperidin-1-yl)carbonyl]benzonitrile]: the IC50 lay in the range of 50 to 100 nM against Jak2 (a.a. 828-1132) and 5 to 20 nM in assay [2]. In addition, the “IC50 Ratio JAK2/JAK1” value in assay [1] is 7.4.

For the molecule `N#CCC1(n2ccc(-c3ncnc4[nH]ccc34)c2)CN(C2CCN(C(=O)c3cc(F)cc(C#N)c3)CC2)C1` [Example 263, 3-[(4-{3-(cyanomethyl)-3-[3-(7H-pyrrolo[2,3-d]pyrimidin-4-yl)-1H-pyrrol-1-yl]azetidin-1-yl}piperidin-1-yl)carbonyl]-5-fluorobenzonitrile], the half-maximal inhibitory concentration (IC50) is 50 to 100 nM on Jak2 (a.a. 828-1132) and not above 5 nM in assay [2]. Moreover, the “IC50 Ratio JAK2/JAK1” value in assay [1] worked out at 12.2.

With `N#CCC1(n2ccc(-c3ncnc4[nH]ccc34)c2)CN(C2CCN(C(=O)c3ccc(C#N)cc3F)CC2)C1` [Example 264, 4-[(4-{3-(cyanomethyl)-3-[3-(7H-pyrrolo[2,3-d]pyrimidin-4-yl)-1H-pyrrol-1-yl]azetidin-1-yl}piperidin-1-yl)carbonyl]-3-fluorobenzonitrile], the values for the IC50 (at Jak2 (a.a. 828-1132); in assay [2]) were 50 to 100 nM and 5 to 20 nM, respectively. Further, the “IC50 Ratio JAK2/JAK1” value in assay [1] is on record as 9.5.

Take `N#CCC1(n2ccc(-c3ncnc4[nH]ccc34)c2)CN(C2CCN(C(=O)c3c(F)cc(C#N)cc3F)CC2)C1` [Example 265, 4-[(4-{3-(cyanomethyl)-3-[3-(7H-pyrrolo[2,3-d]pyrimidin-4-yl)-1H-pyrrol-1-yl]azetidin-1-yl}piperidin-1-yl)carbonyl]-3,5-difluorobenzonitrile]: the IC50 fell in the range of 50 to 100 nM at Jak2 (a.a. 828-1132) and 5 to 20 nM in assay [2]. Also, the “IC50 Ratio JAK2/JAK1” value in assay [1] worked out at 6.6.

Regarding `N#CCC1(n2ccc(-c3ncnc4[nH]ccc34)c2)CN(C2CCN(C(=O)c3cc(F)ccc3C(F)(F)F)CC2)C1` [Example 266, {1-{1-[5-fluoro-2-(trifluoromethyl)benzoyl]piperidin-4-yl}-3-[3-(7H-pyrrolo[2,3-d]pyrimidin-4-yl)-1H-pyrrol-1-yl]azetidin-3-yl}acetonitrile], the IC50 is 50 to 100 nM on Jak2 (a.a. 828-1132) and 5 to 20 nM in assay [2]. Moreover, the “IC50 Ratio JAK2/JAK1” value in assay [1] came to 6.6.

In the case of `N#CCC1(n2ccc(-c3ncnc4[nH]ccc34)c2)CN(C2CCN(C(=O)c3ccc(C(F)(F)F)c(F)c3)CC2)C1` [Example 267, {1-{1-[3-fluoro-4-(trifluoromethyl)benzoyl]piperidin-4-yl}-3-[3-(7H-pyrrolo[2,3-d]pyrimidin-4-yl)-1H-pyrrol-1-yl]azetidin-3-yl}acetonitrile], the IC50 against Jak2 (a.a. 828-1132) was in the range of 50 to 100 nM; in assay [2], 5 to 20 nM. In addition, the “IC50 Ratio JAK2/JAK1” value in assay [1] is given as 6.6.

Consider `N#CCC1(n2ccc(-c3ncnc4[nH]ccc34)c2)CN(C2CCN(C(=O)c3cccc(C(F)(F)F)c3)CC2)C1` [Example 268, (3-[3-(7H-pyrrolo[2,3-d]pyrimidin-4-yl)-1H-pyrrol-1-yl]-1-{1-[3-(trifluoromethyl)benzoyl]piperidin-4-yl}azetidin-3-yl)acetonitrile], for which the concentration for half-maximal inhibition (IC50) is 10 to 50 nM at Jak2 (a.a. 828-1132) and 5 to 20 nM in assay [2]. Moreover, in assay [1], the “IC50 Ratio JAK2/JAK1” value was determined as 3.1.

On to `N#CCC1(n2ccc(-c3ncnc4[nH]ccc34)c2)CN(C2CCN(C(=O)c3cc(OC(F)(F)F)ccc3F)CC2)C1` [Example 269, {1-{1-[2-fluoro-5-(trifluoromethoxy)benzoyl]piperidin-4-yl}-3-[3-(7H-pyrrolo[2,3-d]pyrimidin-4-yl)-1H-pyrrol-1-yl]azetidin-3-yl}acetonitrile], for which the half-maximal inhibitory concentration (IC50) against Jak2 (a.a. 828-1132) is 10 to 50 nM; in assay [2], not above 5 nM. The “IC50 Ratio JAK2/JAK1” value in assay [1] is 5.0.

As for `N#CCC1(n2ccc(-c3ncnc4[nH]ccc34)c2)CN(C2CCN(C(=O)c3c(F)ccc(F)c3F)CC2)C1` [Example 270, {3-[3-(7H-pyrrolo[2,3-d]pyrimidin-4-yl)-1H-pyrrol-1-yl]-1-[1-(2,3,6-trifluorobenzoyl)piperidin-4-yl]azetidin-3-yl}acetonitrile], the IC50 against Jak2 (a.a. 828-1132) is not above 10 nM; in assay [2], not above 5 nM. Moreover, the “IC50 Ratio JAK2/JAK1” value in assay [1] was found to be 6.1.

For the molecule `N#CCC1(n2ccc(-c3ncnc4[nH]ccc34)c2)CN(C2CCN(C(=O)c3cccs3)CC2)C1` [Example 271, {3-[3-(7H-pyrrolo[2,3-d]pyrimidin-4-yl)-1H-pyrrol-1-yl]-1-[1-(2-thienylcarbonyl)piperidin-4-yl]azetidin-3-yl}acetonitrile], the figures for the half-inhibitory concentration (IC50) (against Jak2 (a.a. 828-1132); in assay [2]) were 10 to 50 nM and not above 5 nM, respectively. Besides, in assay [1], the “IC50 Ratio JAK2/JAK1” value is 7.8.

Turning to `N#CCC1(n2ccc(-c3ncnc4[nH]ccc34)c2)CN(C2CCN(C(=O)c3ccc(C(F)(F)F)cc3F)CC2)C1` [Example 272, {1-{1-[2-fluoro-4-(trifluoromethyl)benzoyl]piperidin-4-yl}-3-[3-(7H-pyrrolo[2,3-d]pyrimidin-4-yl)-1H-pyrrol-1-yl]azetidin-3-yl}acetonitrile], the half-inhibitory concentration (IC50) at Jak2 (a.a. 828-1132) is 10 to 50 nM; in assay [2], 5 to 20 nM. The “IC50 Ratio JAK2/JAK1” value in assay [1] came out at 6.5.

As for `N#CCC1(n2ccc(-c3ncnc4[nH]ccc34)c2)CN(C2CCN(C(=O)c3cc(C(F)(F)F)ccc3F)CC2)C1` [Example 273, {1-{1-[2-fluoro-5-(trifluoromethyl)benzoyl]piperidin-4-yl}-3-[3-(7H-pyrrolo[2,3-d]pyrimidin-4-yl)-1H-pyrrol-1-yl]azetidin-3-yl}acetonitrile], the results for the IC50 (at Jak2 (a.a. 828-1132); in assay [2]) were not above 10 nM and not above 5 nM, respectively. Also, the “IC50 Ratio JAK2/JAK1” value in assay [1] was 4.4.

On to `N#CCC1(n2ccc(-c3ncnc4[nH]ccc34)c2)CN(C2CCN(C(=O)c3cc(F)cc(C(F)(F)F)c3)CC2)C1` [Example 274, {1-{1-[3-fluoro-5-(trifluoromethyl)benzoyl]piperidin-4-yl}-3-[3-(7H-pyrrolo[2,3-d]pyrimidin-4-yl)-1H-pyrrol-1-yl]azetidin-3-yl}acetonitrile], for which the IC50 is 10 to 50 nM against Jak2 (a.a. 828-1132) and not above 5 nM in assay [2]. For the same molecule, the “IC50 Ratio JAK2/JAK1” value in assay [1] amounted to 9.0.

`N#CCC1(n2ccc(-c3ncnc4[nH]ccc34)c2)CN(C2CCN(C(=O)c3ccc(F)c(C(F)(F)F)c3)CC2)C1` [Example 275, {1-{1-[4-fluoro-3-(trifluoromethyl)benzoyl]piperidin-4-yl}-3-[3-(7H-pyrrolo[2,3-d]pyrimidin-4-yl)-1H-pyrrol-1-yl]azetidin-3-yl}acetonitrile]: the IC50 on Jak2 (a.a. 828-1132) is 10 to 50 nM; in assay [2], 5 to 20 nM. Moreover, the “IC50 Ratio JAK2/JAK1” value in assay [1] was 3.1.

Turning to `N#CCC1(n2ccc(-c3ncnc4[nH]ccc34)c2)CN(C2CCN(C(=O)c3cccc(F)c3F)CC2)C1` [Example 276, {1-[1-(2,3-difluorobenzoyl)piperidin-4-yl]-3-[3-(7H-pyrrolo[2,3-d]pyrimidin-4-yl)-1H-pyrrol-1-yl]azetidin-3-yl}acetonitrile], the IC50 is not above 10 nM on Jak2 (a.a. 828-1132) and not above 5 nM in assay [2]. Also, the “IC50 Ratio JAK2/JAK1” value in assay [1] stood at 4.0.

Consider `N#CCC1(n2ccc(-c3ncnc4[nH]ccc34)c2)CN(C2CCN(C(=O)c3ccc(F)c(F)c3)CC2)C1` [Example 277, {1-[1-(3,4-difluorobenzoyl)piperidin-4-yl]-3-[3-(7H-pyrrolo[2,3-d]pyrimidin-4-yl)-1H-pyrrol-1-yl]azetidin-3-yl}acetonitrile], for which the figures for the IC50 (against Jak2 (a.a. 828-1132); in assay [2]) were 10 to 50 nM and not above 5 nM, respectively. The “IC50 Ratio JAK2/JAK1” value in assay [1] was determined as 9.8.
